Test system: Plasmopara viticola
Experiment: Action against Plasmopara viticola on vines (preventive leaf spray, Colby evaluation)
Type: in vivo
Conditions: for O Observed action: evaluation after 7 days
Text: Fungicides have a synergistic effect whenever the fungicidal action of the active ingredient combination is greater than the sum of the actions of the active ingredients when applied individually.
The action E to be expected for a given active ingredient combination, for example of two fungicides, obeys the so-called COLBY formula and can be calculated as follows (COLBY, L. R. “Calculating synergistic and antagonistic responses of herbicide combinations”. Weeds 15, pages 20-22, 1967) (LIMPEL et al., […] “Weeds control by . . . certain combinations”. Proc. NEWCL, Vol. 16, pp. 48-53):
(mg a.i./liter=milligrams of active ingredient per liter or a multiple thereof) X=% action by fungicide I at p mg a.i./liter
Y=% action by fungicide II at q mg a.i./liter
E=the expected action of fungicides I+II at a rate of application of p+q mg a.i./liter (additive action), then according to Colby: [formula]
If the action (O) actually observed is greater than the expected action, then the action of the combination is superadditive, i.e. there is a synergistic effect.
1) Action Against Plasmopara viticola on Vines
Small vine plants of the variety “Gutedel” are each grown in a plant-pot (diameter=6 cm) under greenhouse conditions and are sprayed in the two-leaf stage with an active ingredient mixture prepared from an emulsifiable concentrate. The following concentrations of active ingredient are each applied to four plants: […]
metalaxyl racemate: 2 mg and 6 mg a.i./liter;
R-metalaxyl (100%): 0.06 mg and 0.6 mg a.i./liter; mancozeb: 2 mg and 6 mg a.i./liter.
These dilutions are prepared in demineralised water immediately before the leaves are sprayed. In order to eliminate the effect of the gas phase of the metalaxyl in the vicinity, all the plants are separated from one another laterally by means of transparent plastics films and are kept in the dark for one day at 20-22° C. and about 100% relative humidity.
The entire surface of the leaves of the plants is then uniformly sprayed to drip point with a freshly prepared sporangia suspension (120 000/ml) of a strain of Plasmopara viticola that is sensitive to metalaxyl. The plants are then kept at 20-22° C. and about 100% relative humidity for 7 days under artificial daylight of 16 hours' duration. Evaluation of the infestation is then carried out. The Tables show in each case the average of four parallel sprayings. The expected action in the case of mixtures is calculated according to COLBY.
Level of action of racemic metalaxyl and R-metalaxyl in admixture with residual component mancozeb

[1] = single active ingredient 2 mg a.i./l, vines Gutedel, infection 1 day after spraying, average of four
[2] = single active ingredient 6 mg a.i./l, vines

With mancozeb the “O Observed action” value [1] was 0% and the “O Observed action” value [2] was 20%.

For `COCC(=O)N(c1c(C)cccc1C)C(C)C(=O)OC` (stereo not shown) [Metalaxyl, metalaxyl], the “O Observed action” value [1] was 12% and the “O Observed action” value [2] was 24%.

In the case of `COCC(=O)N(c1c(C)cccc1C)[C@H](C)C(=O)OC` (single isomer, unassigned) [R-enantiomer of metalaxyl, R-metalaxyl], the “improvement of action when the R-enantiomer is used instead of racemic metalaxyl” value (in admixture with 2 mg or 6 mg of mancozeb, 0.06 mg R-metalaxyl corresponds to 2 mg racemic metalaxyl) is reported as “about 30 fold”, the “O Observed action” value (single active ingredient 0.06 mg a.i./l, vines) is reported as 12% and the “O Observed action” value (single active ingredient 0.6 mg a.i./l, vines) is reported as 18%.

Reference: patent US6514959B2 (priority 1994, dated 2003)
